The test concerns A375P cell line (melanoma). Description: Proliferation inhibition activity against A375P cell line (MTT assay). The format is cell-based. The note with it: A375P melanoma cells; for GI50: MTT assay, read-out: A375P (GI50); for effects against A375P: statement in words. As to the method:
Measurement of Proliferation Inhibition Activity Against A375P Cell Line (Melanoma)
An A375P cell line purchased from ATCC was cultured in a DMEM medium [containing 10% FBS, 1% penicillin/streptomycin] at 37° C. in the presence of 5% CO2. The cultured A375P cell line was taken using 0.05% trypsin-0.02% EDTA, and seeded into a 96-well plate at a density of 5×10^3 cells per well.
Cell viability was measured using an MTT [3-(4,5-dimethylthiazol-2-yl)-2,5-diphenyltetrazolium bromide] assay (CellTiter 96 Assay, Promega) as follows. 15 μl of dye was placed per well, the cells were cultured for 2 hours, and then treated with 100 μl of a stop solution, and after 24 hours, absorbance was measured. One day after plating, they were treated with compounds. For treatment with compounds, […] of stock was prepared, and serially diluted to one-third in dimethyl sulfoxide (DMSO) to prepare a 12-point test compound plate, and 0.5 μl was added (final concentration DMSO 0.5%).
In the following Tables 1 to 3, in a case of GI50 being 10 to 30 μM, it was indicated as (+), in a case of it being 1 to 10 μM, it was indicated as (++), and in case of being less than 1 μM, it was indicated as (+++).
On the technique in general: Tetrazolium dyes change colour on reduction, which living cells bring about.

Bounds are passed on as bounds.

As to `O=C1CC(c2ccc(NC(=O)c3ccc(Cl)c(C(F)(F)F)c3)cc2)=Nc2cscc2N1` [Example 1, 4-chloro-N-(4-(2-oxo-2,3-dihydro-1H-thieno[3,4-b][1,4]diazepine-4-yl)phenyl)-3-(trifluoromethyl)benzamide], the GI50 lay within 1 to 10 µM.
For the compound `Cc1cn(-c2cc(C(=O)Nc3ccc(C4=Nc5cscc5NC(=O)C4)cc3)cc(C(F)(F)F)c2)cn1` [Example 2, 3-(4-methyl-1H-imidazol-1-yl)-N-(4-(2-oxo-2,3-dihydro-1H-thieno[3,4-b][1,4]diazepine-4-yl)phenyl)-5-(trifluoromethyl)benzamide], the GI50 is below 1 µM and the “effects against A375P” value is given as “significant effects”.
Turning to `O=C1CC(c2ccc(NC(=O)c3cc(N4CCOCC4)cc(C(F)(F)F)c3)cc2)=Nc2cscc2N1` [Example 3, 3-morpholino-N-(4-(2-oxo-2,3-dihydro-1H-thieno[3,4-b][1,4]diazepine-4-yl)phenyl)-5-(trifluoromethyl)benzamide], the 50% growth inhibitory concentration (GI50) is below 1 µM and the “effects against A375P” value is reported as “significant effects”.
On to `O=C1CC(c2ccc(NC(=O)c3ccc(N4CCOCC4)c(C(F)(F)F)c3)cc2)=Nc2cscc2N1` [Example 4, 4-morpholino-N-(4-(2-oxo-2,3-dihydro-1H-thieno[3,4-b][1,4]diazepine-4-yl)phenyl)-3-(trifluoromethyl)benzamide], for which the GI50 fell in the range of 1 to 10 µM.
Take `O=C1CC(c2ccc(NC(=O)c3ccc(-c4ccccc4)cc3)cc2)=Nc2cscc2N1` [Example 5, N-(4-(2-oxo-2,3-dihydro-1H-thieno[3,4-b][1,4]diazepine-4-yl)phenyl)biphenyl-4-carboxamide]: the 50% growth inhibitory concentration (GI50) is below 1 µM and the “effects against A375P” value was “significant effects”.
As to `O=C1CC(c2ccc(NC(=O)c3ccccc3-c3ccccc3)cc2)=Nc2cscc2N1` [Example 6, N-(4-(2-oxo-2,3-dihydro-1H-thieno[3,4-b][1,4]diazepine-4-yl)phenyl)biphenyl-2-carboxamide], the GI50 lay within 10 to 30 µM.
Turning to `O=C1CC(c2ccc(NC(=O)c3cnn(-c4ccccc4)c3C(F)(F)F)cc2)=Nc2cscc2N1` [Example 7, N-(4-(2-oxo-2,3-dihydro-1H-thieno[3,4-b][1,4]diazepine-4-yl)phenyl)-1-phenyl-5-(trifluoromethyl)-1H-pyrazole-4-carboxamide], the GI50 is 1 to 10 µM.
The same measure, in the same setting: for `CC(=O)N1CCC(C(=O)Nc2ccc(C3=Nc4cscc4NC(=O)C3)cc2)CC1` [Example 8, 1-acetyl-N-(4-(2-oxo-2,3-dihydro-1H-thieno[3,4-b][1,4]diazepine-4-yl)phenyl)piperidine-4-carboxamide] the value was 10 to 30 µM.
For the compound `O=C1CC(c2ccc(NC(=O)C(c3ccc(Cl)cc3)c3ccc(Cl)cc3)cc2)=Nc2cscc2N1` [Example 9, 2,2-bis(4-chlorophenyl)-N-(4-(2-oxo-2,3-dihydro-1H-thieno[3,4-b][1,4]diazepine-4-yl)phenyl)acetamide], the 50% growth inhibitory concentration (GI50) lay in the range of 10 to 30 µM.
Consider `O=C1CC(c2ccc(NC(=O)c3ccncc3)cc2)=Nc2cscc2N1` [Example 10, N-(4-(2-oxo-2,3-dihydro-1H-thieno[3,4-b][1,4]diazepine-4-yl)phenyl)isonicotinamide], for which the GI50 lay within 10 to 30 µM.
For `O=C1CC(c2ccc(NC(=O)c3cnccn3)cc2)=Nc2cscc2N1` [Example 11, N-(4-(2-oxo-2,3-dihydro-1H-thieno[3,4-b][1,4]diazepine-4-yl)phenyl)pyrazine-2-carboxamide], the concentration for 50% growth inhibition (GI50) lay within 10 to 30 µM.
With `CN1CCN(c2cc(C(=O)Nc3ccc(C4=Nc5cscc5NC(=O)C4)cc3)cc(C(F)(F)F)c2)CC1` [Example 12, 3-(4-methylpiperazine-1-yl)-N-(4-(2-oxo-2,3-dihydro-1H-thieno[3,4-b][1,4]diazepine-4-yl)phenyl)-5-(trifluoromethyl)benzamide], the 50% growth inhibitory concentration (GI50) was in the range of 10 to 30 µM.
The same measure, in the same setting: as for `O=C1CC(c2ccc(NC(=O)c3ccc(Cl)cc3)cc2)=Nc2cscc2N1` [Example 13, 4-chloro-N-(4-(2-oxo-2,3-dihydro-1H-thieno[3,4-b][1,4]diazepine-4-yl)phenyl)benzamide], the figure is 10 to 30 µM.

As a reminder, the GI50 is the concentration that inhibits growth by half.

The record behind these values is patent publication US10174047B2, “Thienodiazepine derivatives or pharmaceutically acceptable salts thereof, and pharmaceutical composition including the same as an active ingredient” (Industry-University Cooperation Foundation Hanyang …, priority 2015, dated 2019).
